This passage reports GI50 results from patent EP4782450A1, “NOVEL SKELETAL DERIVATIVE EFFECTIVE FOR HER2 MUTATION, AND PHARMACEUTICAL COMPOSITION COMPRISING SAME” (Hanmi Pharm. Co., Ltd., priority 2023, dated 2025).

Where two headings read alike, the source gives them in different places.

In test [1] the test system is wild-type EGFR overexpressing Ba/F3 cells. Nature of the test: Growth inhibition of Ba/F3 cells engineered to overexpress wild-type EGFR (CellTiter-Glo luminescence). It counts as cell-based. Conditions: concentrations 10000 to 8 nM, read-out: Ba/F3 EGFR^WT GI50 class. Here is the method:
(§1) Experimental Example: Growth inhibition of Ba/F3 HER2 A775insYVMA and wild-type Ba/F3 cells
(§2) In this Experimental Example, the compounds obtained in Examples 1 to 92 were evaluated for their ability to inhibit growth of cells harboring either the HER2 A775insYVMA mutation or wild-type EGFR. For this purpose, Ba/F3 cells (ATCC, USA) were genetically engineered to overexpress either HER2 A775_G776insYVMA or wild-type EGFR, and the growth of these engineered Ba/F3 cells were monitored in the presence of the compounds described in the Examples to evaluate their effects on growth inhibition.
(§3) Specifically, culture flasks of the engineered Ba/F3 cells suspended in RPMI 1640 medium supplemented with 10% fetal bovine serum (FBS) and 1% penicillin/streptomycin (Gibco BRL, USA) were placed in a cell incubator and incubated at 37°C and 5% CO2 level to allow them to reach a stable logarithmic growth phase. The cells were then harvested by centrifugation to remove the old media and placed into a 96-well plate by dividing them into 100 µL aliquots per well at a dilution of 1×10^5 cells/mL in fresh media. Each of the compounds prepared in the preceding Examples were dissolved in 99.5% (cell culture grade) dimethylsulfoxide (DMSO) to prepare a stock solution of 10 mM concentration, which were serially diluted in the culture medium to final concentrations of 1000, 200, 40, 8, 1.6 and 0.32 nM for HER2 A775insYVMA Ba/F3 cells and concentrations of 10000, 5000, 1000, 200, 40 and 8 nM for wild-type EGFR overexpressing Ba/F3 cells.
(§4) To each aliquot of cells in the 96-well plate, a 50 µL test solution comprising one of the compounds was added to result in each well a 150 µL volume of cells with a compound in a final concentration ranging from 10 µM to 0.32 nM. The Ba/F3 cells treated with the test solution were incubated for 72 hours at 37°C and 5% CO2 level and underwent a 30-minute acclimation by placing the 96-well plate carrying the cells in ambient temperature. Thereafter, to each well was added 50 µL CellTiter-Glo® Luminescent Cell Assay Reagent (CTG, Promega, USA). After allowing 10 minutes to stabilize the signal, luminescence intensity was measured using a microplate reader. The half-maximal growth inhibition concentration (GI50) was calculated from the luminescence readout of the test compounds with the difference between the initial and final cell densities for the well untreated with a compound set at 100% growth. Nonlinear regression analysis based on log[inhibitor] vs. normalized response mode of the Graph Prism software was used for calculating GI50 for each compound, which are summarized in Table 6. The calculated GI50 values are classified in Table 6 into four categories: A for GI50 values less than 100 nM, B for GI50 values more than 100 nM but less than 1,000 nM, C for GI50 values more than 1,000 nM but less than 5,000 nM, and D for GI50 values of more than 5,000 nM.

In the next test the test system is Ba/F3 HER2 A775insYVMA. Nature of the test: Growth inhibition of Ba/F3 cells engineered to overexpress HER2 A775_G776insYVMA (CellTiter-Glo luminescence). Type of test: cell-based. The note with it: concentrations 1000 to 0.32 nM, read-out: Ba/F3 HER2^YVMA GI50 class. Here is the method:
as §1, §2, §3, §4

As to `C=CC(=O)N1CC(/C=C/c2ccc3ncnc(Nc4ccc(Oc5ccc6c(c5)ncn6C)c(C)c4)c3n2)C1` [Example 28, (E)-1-(3-(2-(4-((3-methyl-4-((1-methyl-1H-benzo[d]imidazol-5-yl)oxy)phenyl)amino)pyrido[3,2-d]pyrimidin-6-yl)vinyl)azetidin-1-yl)prop-2-en-1-one], the GI50 in test [1] (Mus musculus, BaF3, 72 hours) was 1000 to 5000 nM; in the test on Ba/F3 HER2 A775insYVMA (Mus musculus, BaF3, 72 hours) it was less than 100 nM.

With `C=CC(=O)N(C)CCOc1ccc2ncnc(Nc3ccc(Oc4ccn5ncnc5c4)c(C)c3)c2c1` [Example 1, N-(2-((4-((4-([1,2,4]triazolo[1,5-a]pyridin-7-yloxy)-3-methylphenyl)amino)quinazolin-6-yl)oxy)ethyl)-N-methylacrylamide], the GI50 in test [1] (Mus musculus, BaF3, 72 hours) is 100 to 1000 nM; with Ba/F3 HER2 A775insYVMA (Mus musculus, BaF3, 72 hours) it was less than 100 nM.

Turning to `C=CC(=O)N1CCC[C@@H]1C#Cc1ccc2ncnc(Nc3ccc(OC4=CC5N=CN(C)C5C=C4)c(C)c3)c2n1` (stereo partly drawn) [Example 86, 1-((2R)-2-((4-((3-methyl-4-((1-methyl-3a,7a-dihydro-1H-benzo[d]imidazol-5-yl)oxy)phenyl)amino)pyrido[3,2-d]pyrimidin-6-yl)ethynyl)pyrrolidin-1-yl)prop-2-en-1-one], the GI50 in test [1] (Mus musculus, BaF3, 72 hours) is 1000 to 5000 nM; in the test on Ba/F3 HER2 A775insYVMA (Mus musculus, BaF3, 72 hours), less than 100 nM.

For the compound `C=CC(=O)N1CCC[C@@H]1C#Cc1ncc2ncnc(Nc3ccc(OC4=CC5N=CN(C)C5C=C4)c(C)c3)c2n1` (stereo partly drawn) [Example 90, 1-((2R)-2-((8-((3-methyl-4-((1-methyl-3a,7a-dihydro-1H-benzo[d]imidazol-5-yl)oxy)phenyl)amino)pyrimido[5,4-d]pyrimidin-2-yl)ethynyl)pyrrolidin-1-yl)prop-2-en-1-one], the GI50 was less than 100 nM in test [1] (Mus musculus, BaF3, 72 hours) and less than 100 nM in the test on Ba/F3 HER2 A775insYVMA (Mus musculus, BaF3, 72 hours).

Consider `C=CC(=O)N1CC[C@H]1C#Cc1ccc2ncnc(Nc3ccc(Oc4ccn5ncnc5c4)c(C)c3)c2c1` [Example 79, (S)-1-(2-((4-((4-([1,2,4]triazolo[1,5-a]pyridin-7-yloxy)-3-methylphenyl)amino)quinazolin-6-yl)ethynyl)azetidin-1-yl)prop-2-en-1-one], for which the GI50 in test [1] (Mus musculus, BaF3, 72 hours) lay within 1000 to 5000 nM; in the test on Ba/F3 HER2 A775insYVMA (Mus musculus, BaF3, 72 hours), 1000 to 5000 nM.

Turning to `C=CC(=O)N(C)c1cccc(/C=C/c2ccc3ncnc(Nc4ccc(Oc5ccc6c(c5)ncn6C)c(C)c4)c3n2)c1` [Example 63, (E)-N-methyl-N-(3-(2-(4-((3-methyl-4-((1-methyl-1H-benzo[d]imidazol-5-yl)oxy)phenyl)amino)pyrido[3,2-d]pyrimidin-6-yl)vinyl)phenyl)acrylamide], the GI50 lay within 1000 to 5000 nM in test [1] (Mus musculus, BaF3, 72 hours) and 100 to 1000 nM in the test with Ba/F3 HER2 A775insYVMA (Mus musculus, BaF3, 72 hours).

Regarding `Cc1cc(Nc2ncnc3ccc(/C=C/CNC(=O)/C=C/CN4CCOCC4)nc23)ccc1Oc1ccc2c(c1)ncn2C` [Example 60, (E)-N-((E)-3-(4-((3-methyl-4-((1-methyl-1H-benzo[d]imidazol-5-yl)oxy)phenyl)amino)pyrido[3,2-d]pyrimidin-6-yl)allyl)-4-morpholinobut-2-enamide], the GI50 is greater than 5000 nM in test [1] (Mus musculus, BaF3, 72 hours) and less than 100 nM with Ba/F3 HER2 A775insYVMA (Mus musculus, BaF3, 72 hours).

Consider `C=CC(=O)N(C)C/C=C/c1ccc2ncnc(Nc3ccc(Cc4ccn5ncnc5c4)c(C)c3)c2n1` [Example 56, (E)-N-(3-(4-((4-([1,2,4]triazolo[1,5-a]pyridin-7-ylmethyl)-3-methylphenyl)amino)pyrido[3,2-d]pyrimidin-6-yl)allyl)-N-methylacrylamide], for which the GI50 is 100 to 1000 nM in test [1] (Mus musculus, BaF3, 72 hours) and less than 100 nM with Ba/F3 HER2 A775insYVMA (Mus musculus, BaF3, 72 hours).

Consider `C=CC(=O)N1CCC(/C=C/c2ccc3ncnc(Nc4ccc(Oc5ccc6c(c5)ncn6C)c(C)c4)c3n2)C1` (centres unmarked) [Example 29, (E)-1-(3-(2-(4-((3-methyl-4-((1-methyl-1H-benzo[d]imidazol-5-yl)oxy)phenyl)amino)pyrido[3,2-d]pyrimidin-6-yl)vinyl)pyrrolidin-1-yl)prop-2-en-1-one], for which the GI50 in test [1] (Mus musculus, BaF3, 72 hours) was 1000 to 5000 nM; in the test on Ba/F3 HER2 A775insYVMA (Mus musculus, BaF3, 72 hours) it was less than 100 nM.

In the case of “N-methyl-N-(2-((8-((3-methyl-4-((1-methyl-1H-benzo[d]imidazol-5-yl)oxy)phenyl)amino)pyrimido[5,4-d]pyrimidin-2-yl)amino)ethyl)acrylamide [Example 16]”, the GI50 in test [1] (72 hours) was greater than 5000 nM; in the test on Ba/F3 HER2 A775insYVMA (72 hours), 100 to 1000 nM.

On to `C=CC(=O)N(C)CCCOc1ccc2ncnc(Nc3ccc(Oc4ccc5c(c4)ncn5C)c(C)c3)c2n1` [Example 9, N-methyl-N-(3-((4-((3-methyl-4-((1-methyl-1H-benzo[d]imidazol-5-yl)oxy)phenyl)amino)pyrido[3,2-d]pyrimidin-6-yl)oxy)propyl)acrylamide], for which the GI50 in test [1] (Mus musculus, BaF3, 72 hours) is greater than 5000 nM; in the test on Ba/F3 HER2 A775insYVMA (Mus musculus, BaF3, 72 hours), 100 to 1000 nM.

With `C=CC(=O)N(C)CCOc1ccc2ncnc(Nc3ccc(Oc4ccn5ncnc5c4)c(C)c3)c2n1` [Example 3, N-(2-((4-((4-([1,2,4]triazolo[1,5-a]pyridin-7-yloxy)-3-methylphenyl)amino)pyrido[3,2-d]pyrimidin-6-yl)oxy)ethyl)-N-methylacrylamide], the GI50 was 100 to 1000 nM in test [1] (Mus musculus, BaF3, 72 hours) and less than 100 nM with Ba/F3 HER2 A775insYVMA (Mus musculus, BaF3, 72 hours).

On to `C=CC(=O)NC/C=C/c1ccc2ncnc(Nc3ccc(Oc4ccn5ncnc5c4)c(C)c3)c2n1` [Example 38, (E)-N-(3-(4-((4-([1,2,4]triazolo[1,5-a]pyridin-7-yloxy)-3-methylphenyl)amino)pyrido[3,2-d]pyrimidin-6-yl)allyl)acrylamide], for which the GI50 is 100 to 1000 nM in test [1] (Mus musculus, BaF3, 72 hours) and less than 100 nM in the test with Ba/F3 HER2 A775insYVMA (Mus musculus, BaF3, 72 hours).

As to `C=CC(=O)N1CCCC[C@@H]1C#Cc1ccc2ncnc(Nc3ccc(Oc4ccn5ncnc5c4)c(C)c3)c2c1` [Example 76, (R)-1-(2-((4-((4-([1,2,4]triazolo[1,5-a]pyridin-7-yloxy)-3-methylphenyl)amino)quinazolin-6-yl)ethynyl)piperidin-1-yl)prop-2-en-1-one], the GI50 is 100 to 1000 nM in test [1] (Mus musculus, BaF3, 72 hours) and less than 100 nM with Ba/F3 HER2 A775insYVMA (Mus musculus, BaF3, 72 hours).

For the compound `C=CC(=O)N(C)CCOc1ccc2ncnc(Nc3ccc(Oc4ccc5c(c4)ncn5C)c(C)c3)c2n1` [Example 6, N-methyl-N-(2-((4-((3-methyl-4-((1-methyl-1H-benzo[d]imidazol-5-yl)oxy)phenyl)amino)pyrido[3,2-d]pyrimidin-6-yl)oxy)ethyl)acrylamide], the GI50 in test [1] (Mus musculus, BaF3, 72 hours) is greater than 5000 nM; in the test with Ba/F3 HER2 A775insYVMA (Mus musculus, BaF3, 72 hours), less than 100 nM.

On to `C=CC(=O)N1CCCC(/C=C/c2ccc3ncnc(Nc4ccc(Oc5ccc6c(c5)ncn6C)c(C)c4)c3n2)C1` (centres unmarked) [Example 27, (E)-1-(3-(2-(4-((3-methyl-4-((1-methyl-1H-benzo[d]imidazol-5-yl)oxy)phenyl)amino)pyrido[3,2-d]pyrimidin-6-yl)vinyl)piperidin-1-yl)prop-2-en-1-one], for which the GI50 lay within 1000 to 5000 nM in test [1] (Mus musculus, BaF3, 72 hours) and 100 to 1000 nM in the test on Ba/F3 HER2 A775insYVMA (Mus musculus, BaF3, 72 hours).

For the compound `Cc1cc(Nc2ncnc3ccc(/C=C/CN(C)C(=O)/C=C/CN(C)C)nc23)ccc1Oc1ccc2c(c1)ncn2C` [Example 32, (E)-4-(dimethylamino)-N-methyl-N-((E)-3-(4-((3-methyl-4-((1-methyl-1H-benzo[d]imidazol-5-yl)oxy)phenyl)amino)pyrido[3,2-d]pyrimidin-6-yl)allyl)but-2-enamide], the GI50 in test [1] (Mus musculus, BaF3, 72 hours) was greater than 5000 nM; with Ba/F3 HER2 A775insYVMA (Mus musculus, BaF3, 72 hours), 100 to 1000 nM.

For the compound `C=CC(=O)NC/C=C/c1ccc2ncnc(Nc3ccc(Oc4ccc5c(c4)ncn5C)c(C)c3Cl)c2n1` [Example 36, (E)-N-(3-(4-((2-chloro-3-methyl-4-((1-methyl-1H-benzo[d]imidazol-5-yl)oxy)phenyl)amino)pyrido[3,2-d]pyrimidin-6-yl)allyl)acrylamide], the GI50 in test [1] (Mus musculus, BaF3, 72 hours) was greater than 5000 nM; in the test with Ba/F3 HER2 A775insYVMA (Mus musculus, BaF3, 72 hours), less than 100 nM.

As to `C=CC(=O)N(C)C/C=C/c1ccc2ncnc(Nc3ccc(Oc4cnc5c(c4)ncn5C)c(C)c3)c2n1` [Example 43, (E)-N-methyl-N-(3-(4-((3-methyl-4-((3-methyl-3H-imidazo[4,5-b]pyridin-6-yl)oxy)phenyl)amino)pyrido[3,2-d]pyrimidin-6-yl)allyl)acrylamide], the GI50 in test [1] (Mus musculus, BaF3, 72 hours) was 1000 to 5000 nM; with Ba/F3 HER2 A775insYVMA (Mus musculus, BaF3, 72 hours), less than 100 nM.
